{"source": "patent US20050182065A1", "about": "“Method of stimulating hair growth” (priority 2004, published 2005)", "key": {"C3H/HeN mice [1]": {"tested_on": "C3H/HeN mice", "test": "Telogen Conversion Assay", "type": "in vivo", "details": "Experiment 8; for Results: number of days following initiation of treatment when hair growth appeared in 50% of the mice: topical once daily for 5 days, solvent polyethylene glycol 30 v/v %, ethanol 30 v/v %, transcutanol 40 v/v %, vehicle 28"}, "C3H/HeN mice [2]": {"tested_on": "C3H/HeN mice", "test": "Telogen Conversion Assay", "type": "in vivo", "details": "for Results: number of days following initiation of treatment when hair growth appeared in 50% of the mice: topical once daily for 5 days, propylene glycol 30%/ethanol 70%", "description": "The Telogen Conversion Assay measures the potential of a compound (hereinafter referred to as the “test compound”) to convert mice in the resting stage of the hair growth cycle (“telogen”) to the active stage of the hair growth cycle (“anagen”). This assay takes advantage of the fact that the fur (i.e. hair) of 40-day-old C3H/HeN mice is in the telogen phase. This phase usually continues until about 75 days of age, at which point, anagen naturally occurs in these animals. In this assay, selected areas of 40-day-old mice (approximate) are shaved, contacted with a test agent, or a control, and the difference in the rate of hair growth is measured (i.e. induction of the anagen phase). The first sign of anagen is the darkening of skin color as melanocytes in the follicles start to synthesize melanin, in preparation for the production of pigmented hairs.\nFemale C3H/HeN mice, 7 weeks old (Charles River Laboratories, Raleigh, N.C.) were used for the study. Fur was clipped from the dorsal region of the mice prior to initiation of the study. Only mice with pink skin, a visual indication of the telogen phase, were selected for inclusion in the study.\nTest compounds (from Table A) were dissolved in a vehicle consisting of propylene glycol (30%) and ethanol (70%). A test compound dissolved in vehicle, or a vehicle control (30/70 propylene glycol/ethanol, unless otherwise specified) was applied topically to the clipped dorsal region of the mice in each test group (7-10 mice) in a volume of 20 μl/cm^2. Treatments were applied once daily for 5 days.\nThe treatment area was observed and graded for signs of hair growth. The hair growth response was quantified by recording, for each animal, the day on which signs of hair growth first appeared over the treated area. The first sign of anagen was the darkening of skin color as melanocytes in the follicles started to synthesize melanin. The response time was measured as the number of days between initiation of treatment and when hair growth was present in 50% of the mice in a given group.\nThe results are reported as the number of days following initiation of treatment when hair growth appeared in 50% of the mice in a given group."}}, "data": [{"smiles": "Cn1nc(O[C@@H]2c3cc(S(=O)(=O)c4cccc(O)c4)ccc3OC(C)(C)[C@@]2(C)O)ccc1=O", "note": "[Compound #1, (3S,4R)-3,4-dihydro-4-(2,3-dihydro-2-methyl-3-oxopyridazin-6-yl)oxy-3-hydroxy-6-(3-hydroxyphenyl)sulphonyl-2,2,3-trimethyl-2H-benzo[b]pyran]", "values": [{"measurement": "Results: number of days following initiation of treatment when hair growth appeared in 50% of the mice", "setting": "C3H/HeN mice [1]; 0.3 w/v %", "result": 21, "unit": "days"}, {"measurement": "Results: number of days following initiation of treatment when hair growth appeared in 50% of the mice", "setting": "C3H/HeN mice [1]; 1.0 w/v %", "result": 21, "unit": "days"}, {"measurement": "Induction of anagen (conclusion in words)", "setting": "C3H/HeN mice [1]; transcutol, ethanol, polypropylene glycol vehicle", "result": "exhibited activity at all doses tested in this vehicle"}, {"measurement": "Relative efficacy in the telogen conversion assay (summary)", "setting": "C3H/HeN mice [2]; 15 experiments, compared with the other potassium channel openers of Table A", "result": "showed the highest relative efficacy in the model"}, {"measurement": "Results: number of days following initiation of treatment when hair growth appeared in 50% of the mice", "setting": "C3H/HeN mice [2]; Experiment 1, 1.0 w/v %, terminated early", "result": ">35", "unit": "days"}, {"measurement": "Induction of anagen (conclusion in words)", "setting": "C3H/HeN mice [2]; Experiment 2", "result": "exhibited signs of anagen sooner than those receiving Compound #6"}, {"measurement": "Results: number of days following initiation of treatment when hair growth appeared in 50% of the mice", "setting": "C3H/HeN mice [2]; Experiment 2, 0.3 w/v %, vehicle 25", "result": 11, "unit": "days"}, {"measurement": "Results: number of days following initiation of treatment when hair growth appeared in 50% of the mice", "setting": "C3H/HeN mice [2]; Experiment 2, 1.0 w/v %, vehicle 25", "result": 11, "unit": "days"}, {"measurement": "Results: number of days following initiation of treatment when hair growth appeared in 50% of the mice", "setting": "C3H/HeN mice [2]; Experiment 3, 0.1 w/v %, terminated early", "result": ">35", "unit": "days"}, {"measurement": "Results: number of days following initiation of treatment when hair growth appeared in 50% of the mice", "setting": "C3H/HeN mice [2]; Experiment 3, 0.3 w/v %, terminated early", "result": ">35", "unit": "days"}, {"measurement": "Results: number of days following initiation of treatment when hair growth appeared in 50% of the mice", "setting": "C3H/HeN mice [2]; Experiment 3, 1.0 w/v %, terminated early", "result": ">35", "unit": "days"}, {"measurement": "Results: number of days following initiation of treatment when hair growth appeared in 50% of the mice", "setting": "C3H/HeN mice [2]; Experiment 4, 0.3 w/v %, vehicle >33", "result": 26, "unit": "days"}, {"measurement": "Results: number of days following initiation of treatment when hair growth appeared in 50% of the mice", "setting": "C3H/HeN mice [2]; Experiment 4, 1.0 w/v %, vehicle >33", "result": 26, "unit": "days"}, {"measurement": "Induction of anagen (conclusion in words)", "setting": "C3H/HeN mice [2]; Experiment 4, terminated early", "result": "induced anagen at each of the test concentrations"}, {"measurement": "Results: number of days following initiation of treatment when hair growth appeared in 50% of the mice", "setting": "C3H/HeN mice [2]; Experiment 5, 0.03 w/v %, vehicle >35", "result": ">35", "unit": "days"}, {"measurement": "Results: number of days following initiation of treatment when hair growth appeared in 50% of the mice", "setting": "C3H/HeN mice [2]; Experiment 5, 0.1 w/v %, vehicle >35", "result": ">35", "unit": "days"}, {"measurement": "Results: number of days following initiation of treatment when hair growth appeared in 50% of the mice", "setting": "C3H/HeN mice [2]; Experiment 5, 0.3 w/v %, vehicle >35", "result": ">35", "unit": "days"}, {"measurement": "Results: number of days following initiation of treatment when hair growth appeared in 50% of the mice", "setting": "C3H/HeN mice [2]; Experiment 6, 0.003 w/v %, vehicle >35", "result": ">35", "unit": "days"}, {"measurement": "Results: number of days following initiation of treatment when hair growth appeared in 50% of the mice", "setting": "C3H/HeN mice [2]; Experiment 6, 0.03 w/v %, vehicle >35", "result": ">35", "unit": "days"}, {"measurement": "Results: number of days following initiation of treatment when hair growth appeared in 50% of the mice", "setting": "C3H/HeN mice [2]; Experiment 6, 0.3 w/v %, vehicle >35", "result": 28, "unit": "days"}, {"measurement": "Induction of anagen (conclusion in words)", "setting": "C3H/HeN mice [2]; Experiment 6, terminated early, up to day 35", "result": "induced anagen despite the early termination of the experiment"}, {"measurement": "Results: number of days following initiation of treatment when hair growth appeared in 50% of the mice", "setting": "C3H/HeN mice [2]; Experiment 7, 0.003 w/v %, vehicle 29", "result": 26, "unit": "days"}, {"measurement": "Results: number of days following initiation of treatment when hair growth appeared in 50% of the mice", "setting": "C3H/HeN mice [2]; Experiment 7, 0.03 w/v %, vehicle 29", "result": 24, "unit": "days"}, {"measurement": "Results: number of days following initiation of treatment when hair growth appeared in 50% of the mice", "setting": "C3H/HeN mice [2]; Experiment 7, 0.3 w/v %, vehicle 29", "result": 19, "unit": "days"}, {"measurement": "Induction of anagen (conclusion in words)", "setting": "C3H/HeN mice [2]; Experiment 7, proceeded to completion", "result": "induced anagen at all of the concentrations tested"}, {"measurement": "Results: number of days following initiation of treatment when hair growth appeared in 50% of the mice", "setting": "C3H/HeN mice [2]; Experiment 8, 1.0 w/v %, vehicle >35", "result": 18, "unit": "days"}, {"measurement": "Results: number of days following initiation of treatment when hair growth appeared in 50% of the mice", "setting": "C3H/HeN mice [2]; Experiment 9, 0.03 w/v %, terminated early", "result": ">33", "unit": "days"}, {"measurement": "Results: number of days following initiation of treatment when hair growth appeared in 50% of the mice", "setting": "C3H/HeN mice [2]; Experiment 9, 0.3 w/v %, terminated early", "result": ">33", "unit": "days"}, {"measurement": "Results: number of days following initiation of treatment when hair growth appeared in 50% of the mice", "setting": "C3H/HeN mice [2]; Experiment 9, 1.0 w/v %, terminated early", "result": ">33", "unit": "days"}, {"measurement": "Results: number of days following initiation of treatment when hair growth appeared in 50% of the mice", "setting": "C3H/HeN mice [2]; Experiment 10, 0.1 w/v %, terminated early", "result": ">34", "unit": "days"}, {"measurement": "Results: number of days following initiation of treatment when hair growth appeared in 50% of the mice", "setting": "C3H/HeN mice [2]; Experiment 10, 0.3 w/v %, terminated early", "result": ">34", "unit": "days"}, {"measurement": "Induction of anagen (conclusion in words)", "setting": "C3H/HeN mice [2]; Experiment 11", "result": "induced anagen"}, {"measurement": "Results: number of days following initiation of treatment when hair growth appeared in 50% of the mice", "setting": "C3H/HeN mice [2]; Experiment 11, 0.3 w/v %, vehicle 56", "result": 25, "unit": "days"}, {"measurement": "Induction of anagen (conclusion in words)", "setting": "C3H/HeN mice [2]; Experiment 12", "result": "did not induce anagen"}, {"measurement": "Results: number of days following initiation of treatment when hair growth appeared in 50% of the mice", "setting": "C3H/HeN mice [2]; Experiment 12, 1.0 w/v %, vehicle 37", "result": 39, "unit": "days"}, {"measurement": "Induction of anagen (conclusion in words)", "setting": "C3H/HeN mice [2]; Experiment 13", "result": "induced anagen"}, {"measurement": "Results: number of days following initiation of treatment when hair growth appeared in 50% of the mice", "setting": "C3H/HeN mice [2]; Experiment 13, 1.0 w/v %, vehicle 28", "result": 14, "unit": "days"}, {"measurement": "Induction of anagen (conclusion in words)", "setting": "C3H/HeN mice [2]; Experiment 14", "result": "induced anagen"}, {"measurement": "Results: number of days following initiation of treatment when hair growth appeared in 50% of the mice", "setting": "C3H/HeN mice [2]; Experiment 14, 1.0 w/v %, vehicle 29", "result": 25, "unit": "days"}, {"measurement": "Results: number of days following initiation of treatment when hair growth appeared in 50% of the mice", "setting": "C3H/HeN mice [2]; Experiment 15, 0.3 w/v %, vehicle >30", "result": 16, "unit": "days"}, {"measurement": "Results: number of days following initiation of treatment when hair growth appeared in 50% of the mice", "setting": "C3H/HeN mice [2]; Experiment 15, 1.0 w/v %, vehicle >30", "result": 23, "unit": "days"}, {"measurement": "Induction of anagen (conclusion in words)", "setting": "C3H/HeN mice [2]; Experiment 15, terminated early", "result": "induced anagen at both of the concentrations tested"}]}]}
